Reference: ChEMBL document CHEMBL1201862, “PubChem BioAssay data set” (2004)
The source made the active and inactive calls.

What was measured:
[1] = AlphaScreen signal interference compounds, dose response, artefact control for ARNT-TACC3 interaction inhibitor project, biochemical, luminescence, cherry-pick (AID 651705); format: functional;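 also: AlphaScreen bead proximity signal that flags compounds interfering with the detection technology; potency reflects signal decrease which marks the compound as an assay artifact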
[2] = target: T1, Sentrin-specific protease 8 (Homo sapiens, UniProt Q96LD8); format: functional
T1 sequence (Q96LD8 whole entry): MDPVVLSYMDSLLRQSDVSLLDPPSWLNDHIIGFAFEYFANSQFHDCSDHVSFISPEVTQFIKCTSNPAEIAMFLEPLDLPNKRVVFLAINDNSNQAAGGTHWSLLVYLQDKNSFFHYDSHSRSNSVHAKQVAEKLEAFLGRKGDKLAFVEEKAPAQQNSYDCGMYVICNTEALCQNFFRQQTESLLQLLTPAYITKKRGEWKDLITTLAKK

[3] = target: T1, Sentrin-specific protease 8; format: functional; remark: listed apart in the source
HEK293 = assay: cells; format: functional, cell-based; settings: Homo sapiens
[4] = HepG2 cell cytotoxicity, dose response, cytotoxicity control, ATP luminescence, cherry-pick, activator set 2 (AID 1053143); format: functional, cell-based
[5] = MDA-MB-231 cell growth inhibition, dose response, cytotoxicity control for RAD54 inhibitor project, CellTiter-Glo luminescence, cherry-pick (AID 651692); format: functional, cell-based
[6] = target: Nuclear receptor subfamily 0 group B member 1 (Homo sapiens, UniProt P51843); assay: Luminescence-based cell-based high throughput dose response assay for inhibitors of the orphan nuclear receptor subfamily 0, group B, member 1 (DAX1; NR0B1). [Related pubchem assays (depositor defined):AID504766, AID504790]; format: functional
[7] = target: T2, DNA repair and recombination protein RAD54-like (Homo sapiens, UniProt Q92698); assay: inhibitors of human RAD54 branch migration, confirmation, biochemical, fluorescence, cherry-picked samples, dose series (AID 651657); format: functional
T2 sequence (Q92698 whole entry): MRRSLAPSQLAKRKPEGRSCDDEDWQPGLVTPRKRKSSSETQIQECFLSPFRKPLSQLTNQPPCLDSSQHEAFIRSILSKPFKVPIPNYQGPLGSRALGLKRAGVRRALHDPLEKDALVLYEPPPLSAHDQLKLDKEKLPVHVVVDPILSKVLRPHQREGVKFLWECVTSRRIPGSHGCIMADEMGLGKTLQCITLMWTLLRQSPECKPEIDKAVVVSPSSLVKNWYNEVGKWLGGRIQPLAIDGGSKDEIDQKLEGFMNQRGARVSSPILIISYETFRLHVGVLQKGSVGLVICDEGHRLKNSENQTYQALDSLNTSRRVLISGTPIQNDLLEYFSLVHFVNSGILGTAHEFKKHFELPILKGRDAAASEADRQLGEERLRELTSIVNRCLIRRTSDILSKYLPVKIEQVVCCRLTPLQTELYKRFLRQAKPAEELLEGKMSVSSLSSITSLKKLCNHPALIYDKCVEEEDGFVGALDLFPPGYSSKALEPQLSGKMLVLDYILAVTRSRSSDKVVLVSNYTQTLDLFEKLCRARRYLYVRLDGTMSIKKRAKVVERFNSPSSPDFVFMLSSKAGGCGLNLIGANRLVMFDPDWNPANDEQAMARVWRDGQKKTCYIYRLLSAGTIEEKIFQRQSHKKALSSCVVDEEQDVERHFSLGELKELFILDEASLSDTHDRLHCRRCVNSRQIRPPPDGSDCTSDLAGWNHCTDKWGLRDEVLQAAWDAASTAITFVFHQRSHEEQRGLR

Steroidogenic factor 1 = Steroidogenic factor 1 (Homo sapiens, UniProt Q13285); assay: Counterscreen for inverse agonists of the liver receptor homolog-1 (LRH-1; NR5A2): Luminescence-based cell-based high throughput dose response assay to identify inverse agonists of the Steroidogenic Factor 1 Nuclear Receptor (SF1; NR5A1).; format: functional
[8] = target: Nuclear receptor subfamily 5 group A member 2 (Homo sapiens, UniProt O00482); format: functional, cell-based;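 also: HEK293T cells transfected with LRH-1 and a StAR promoter luciferase reporter; potency for inhibitors that lower LRH-1 driven reporter light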
[9] = StAR promoter reporter inhibition counter-screen, dose response, counter-screen for LRH-1 inverse agonist project, cell-based, luminescence, luciferase reporter (AID 651969); format: functional
[10] = CRF-BP/CRF-R2 complex antagonists, dose response, cell-based, uHTS hits, 384-well (AID 651639); format: functional, Homo sapiens; settings: read-out: IC50_Mean
[11] = target: T3, Corticotropin-releasing factor receptor 2/Corticotropin-releasing factor-binding protein (Homo sapiens, UniProt P24387+Q13324); assay: Dose Response confirmation of uHTS hits for small molecule antagonists of the CRF-binding protein and CRF-R2 receptor complex.; format: functional; settings: read-out: IC50_Mean
T3 sequence (Q13324 whole entry): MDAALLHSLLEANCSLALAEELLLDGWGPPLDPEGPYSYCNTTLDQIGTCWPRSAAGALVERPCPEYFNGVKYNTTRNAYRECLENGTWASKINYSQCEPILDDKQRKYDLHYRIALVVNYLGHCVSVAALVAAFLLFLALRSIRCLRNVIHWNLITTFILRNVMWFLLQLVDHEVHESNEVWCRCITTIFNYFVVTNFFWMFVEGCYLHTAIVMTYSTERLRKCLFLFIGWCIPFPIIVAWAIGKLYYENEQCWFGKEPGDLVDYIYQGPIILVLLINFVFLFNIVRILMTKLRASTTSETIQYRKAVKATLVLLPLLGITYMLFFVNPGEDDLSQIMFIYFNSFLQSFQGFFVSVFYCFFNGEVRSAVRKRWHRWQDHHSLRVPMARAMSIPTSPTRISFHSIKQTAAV
T3 sequence (P24387 whole entry): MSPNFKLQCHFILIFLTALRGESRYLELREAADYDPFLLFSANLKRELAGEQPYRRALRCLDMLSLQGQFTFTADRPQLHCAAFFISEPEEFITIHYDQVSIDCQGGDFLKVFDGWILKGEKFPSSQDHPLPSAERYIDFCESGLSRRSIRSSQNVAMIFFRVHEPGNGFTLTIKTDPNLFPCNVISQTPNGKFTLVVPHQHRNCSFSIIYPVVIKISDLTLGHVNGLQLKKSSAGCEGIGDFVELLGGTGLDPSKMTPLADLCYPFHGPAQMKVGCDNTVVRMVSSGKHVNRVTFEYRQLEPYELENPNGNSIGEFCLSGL

[12] = target: T3, Corticotropin-releasing factor receptor 2/Corticotropin-releasing factor-binding protein; assay: activators of CRF receptor 2 with binding protein – uHTS hits, confirmation (AID 602473); format: functional; settings: read-out: EC50_Mean

Chain of Steroidogenic factor 1 (Q13285 whole entry): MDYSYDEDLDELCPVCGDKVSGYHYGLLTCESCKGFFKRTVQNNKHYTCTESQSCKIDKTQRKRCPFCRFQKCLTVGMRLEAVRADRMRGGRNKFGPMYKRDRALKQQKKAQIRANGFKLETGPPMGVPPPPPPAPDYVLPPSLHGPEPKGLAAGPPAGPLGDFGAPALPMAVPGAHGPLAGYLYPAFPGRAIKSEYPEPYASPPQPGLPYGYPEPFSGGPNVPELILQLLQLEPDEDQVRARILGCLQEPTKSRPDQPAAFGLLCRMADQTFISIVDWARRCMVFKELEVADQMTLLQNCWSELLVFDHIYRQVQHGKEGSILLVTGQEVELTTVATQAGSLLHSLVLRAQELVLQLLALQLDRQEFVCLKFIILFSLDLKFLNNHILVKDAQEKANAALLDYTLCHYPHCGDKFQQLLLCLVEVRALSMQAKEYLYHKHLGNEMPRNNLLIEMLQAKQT
Chain of Nuclear receptor subfamily 5 group A member 2 (O00482 whole entry): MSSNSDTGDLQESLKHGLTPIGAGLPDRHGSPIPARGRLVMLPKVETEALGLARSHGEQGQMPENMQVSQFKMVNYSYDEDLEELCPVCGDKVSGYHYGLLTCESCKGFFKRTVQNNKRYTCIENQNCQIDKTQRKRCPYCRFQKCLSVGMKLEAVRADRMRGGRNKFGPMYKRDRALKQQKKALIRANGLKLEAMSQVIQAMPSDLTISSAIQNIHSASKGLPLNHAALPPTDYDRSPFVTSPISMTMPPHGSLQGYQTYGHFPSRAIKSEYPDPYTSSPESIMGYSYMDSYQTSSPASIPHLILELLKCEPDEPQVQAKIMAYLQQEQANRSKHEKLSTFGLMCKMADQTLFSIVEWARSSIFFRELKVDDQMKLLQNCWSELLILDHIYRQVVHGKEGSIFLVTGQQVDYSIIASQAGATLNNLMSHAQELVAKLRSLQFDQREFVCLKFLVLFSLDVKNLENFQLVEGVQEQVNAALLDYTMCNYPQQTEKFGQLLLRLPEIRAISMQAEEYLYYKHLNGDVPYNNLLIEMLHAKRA
Chain of Nuclear receptor subfamily 0 group B member 1 (P51843 whole entry): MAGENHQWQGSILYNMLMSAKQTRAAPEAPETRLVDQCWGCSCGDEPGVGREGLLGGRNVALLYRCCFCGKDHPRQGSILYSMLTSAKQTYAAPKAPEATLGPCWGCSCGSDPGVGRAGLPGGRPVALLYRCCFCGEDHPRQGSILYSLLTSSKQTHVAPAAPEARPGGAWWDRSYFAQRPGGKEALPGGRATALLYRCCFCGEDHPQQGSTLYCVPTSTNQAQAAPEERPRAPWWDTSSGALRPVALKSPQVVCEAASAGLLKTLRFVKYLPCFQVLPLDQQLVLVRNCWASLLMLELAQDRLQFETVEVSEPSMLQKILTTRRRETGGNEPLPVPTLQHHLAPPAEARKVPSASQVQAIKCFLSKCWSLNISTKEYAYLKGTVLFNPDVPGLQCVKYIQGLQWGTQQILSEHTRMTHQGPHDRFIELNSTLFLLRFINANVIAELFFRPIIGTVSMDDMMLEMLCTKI

CN1CC[C@@]2(C)c3cc(O)ccc3N(C)[C@@H]12
AC50 [1]: 97.2 µM (active)
IC50 [2]: 8.51 µM (active)
IC50 [3]: 3.53 µM (active)

CCN1C(=O)CCN(C2CCCC2)c2nc(Nc3ccc(C(=O)NC4CCN(C)CC4)cc3OC)ncc21
IC50 (HEK293): > 67.5 µM (inactive)
AC50 [4]: 13 µM (active)
AC50 [5]: 36.4 µM (active)
IC50 [6]: > 67.5 µM (inactive)
AC50 [7]: 39.3 µM (active)

Cc1ccc(NC(=O)COC(=O)c2cc(=O)c3ccccc3o2)c(Br)c1
IC50 (Steroidogenic factor 1): 24.3 µM (inactive)
IC50 [8]: 3.98 µM (active)
IC50 [9]: 35.9 µM (inactive)

O=C(Cc1ccccc1)NCC(=O)OC(c1ccccc1)c1ccccc1
IC50 [10]: > 20 µM (inactive)
IC50 [11]: 18.9 µM (active)
EC50 [12]: > 53 µM (inactive)
